From patent US8367695B2, “Condensed tetrahydroquinoline derivative and use thereof for medical purposes” (Mitsubishi Tanabe Pharma Corporation, priority 2007, dated 2013) come the findings set out here.

Structures are written as SMILES.

For the test, the target named is T1, human recombinant glucocorticoids receptor (GR) (Homo sapiens, UniProt P04150).
T1 sequence (P04150 1-777): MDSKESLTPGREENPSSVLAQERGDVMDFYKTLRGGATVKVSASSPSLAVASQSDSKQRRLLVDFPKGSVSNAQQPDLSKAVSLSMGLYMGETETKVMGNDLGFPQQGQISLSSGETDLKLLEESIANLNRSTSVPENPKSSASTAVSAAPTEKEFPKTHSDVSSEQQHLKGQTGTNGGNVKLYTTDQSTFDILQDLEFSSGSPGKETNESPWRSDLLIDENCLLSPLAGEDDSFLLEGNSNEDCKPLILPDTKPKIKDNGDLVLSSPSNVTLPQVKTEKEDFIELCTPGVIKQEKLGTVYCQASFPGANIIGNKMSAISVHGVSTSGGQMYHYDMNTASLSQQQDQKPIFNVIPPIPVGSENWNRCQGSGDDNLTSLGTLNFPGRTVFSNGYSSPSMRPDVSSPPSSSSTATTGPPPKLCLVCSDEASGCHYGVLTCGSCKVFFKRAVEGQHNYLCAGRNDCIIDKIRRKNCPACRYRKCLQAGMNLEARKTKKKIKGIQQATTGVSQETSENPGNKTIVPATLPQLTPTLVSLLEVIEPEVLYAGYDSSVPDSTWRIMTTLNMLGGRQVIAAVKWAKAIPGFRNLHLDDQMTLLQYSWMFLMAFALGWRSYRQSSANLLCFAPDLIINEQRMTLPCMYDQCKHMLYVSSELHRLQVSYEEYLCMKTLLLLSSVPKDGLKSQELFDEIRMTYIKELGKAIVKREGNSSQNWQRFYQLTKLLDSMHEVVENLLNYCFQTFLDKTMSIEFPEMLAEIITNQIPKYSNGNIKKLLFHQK
Nature of the test: Radioactive ligand binding test, GR cytosol, [3H]-Dex. As to conditions: [3H]-Dex about 5 nM, GR cytosol, 4° C.; Cheng-Prusoff, Kd about 3.1 nM; read-out: GR (Ki: nM). On the procedure:
Radioactive Ligand Binding Test Using Cytosols of Human Glucocorticoids Receptor, Progesterone Receptor and Mineralocorticoid Receptor
Opthalmol. Vis. […] In brief, cytosol preparations of human recombinant glucocorticoids receptor (GR) and human recombinant progesterone receptor-B (PRB) were purchased from Invitrogen (Carlsbad, Calif.), and a cytosol preparation of human recombinant mineralocorticoid receptor (MR) was prepared by our company (Yokohama, JP). MR cDNA was cloned into a baculovirus expression vector and expressed in insect cell Sf9. […] [^3H]-Dexamethasone (Dex, specific activity 91.0 Ci/mmol) was purchased from GE Healthcare (Buckinghamshire, UK), and [^3H]-progesterone (Prog, specific activity 103 Ci/mmol) and [3H]-aldosterone (Ald, specific activity 87.9 Ci/mmol) were each purchased from PerkinElmer (Boston, Mass.). Polypropylene round-bottomed 96 well plate was obtained from ABgene (Epsom, UK). Dimethyl Sulfoxide (DMSO) and hydrochloric acid were obtained from Kanto Chemical (TOKYO, JP). Trizma Base (Tris), Bovine Serum Albumin (BSA) and Sodium tungstate dihydrate were obtained from Sigma Chemicals (St. Louis, Mo.). Dithiothreitol (DTT) and Dextran 70 were obtained from GE Healthcare (Buckinghamshire, UK). Glycerol was obtained from Junsei Chemical (TOKYO, JP). Norit® “SX-II” was obtained from Wako Pure Chemical Industries, Ltd. (Osaka, JP). MeltiLex™, A, Printed Filtermat A and Sample Bag were obtained from PerkinElmer (Boston, Mass.).
As a buffer for GR binding assay, 25 mM Tris-HCl (4° C., pH 7.4)/1 mM EDTA·2Na/1 mM DTT/0.1% BSA was prepared and used. As buffers for PRB and MR binding assay, 10 mM Tris-HCl (4° C., pH 7.4)/1 mM DTT/0.1% BSA/10% glycerol and 20 mM Tris-HCl (4° C., pH 7.4)/1 mM EDTA·2Na/10% glycerol/20 mM sodium tungstate were respectively prepared and used.
Compound storage solutions (5-20 mM) were prepared using DMSO. The storage solutions were diluted with DMSO to 0.1 mM (for GR) and 0.3 mM (for PRB and MR), and further diluted 20-fold with distilled water to give solutions. Then, the preparations were diluted to each concentration with 5% DMSO solution. 1% DMSO was present at the time of the binding assay.
GR, PRB and MR binding reactions were performed in 96 well plate (ABgene). In the case of GR binding assay, [^3H]-Dex (about 5 nM), GR cytosol (concentration of function receptor: about 4 pmol/mL), a test compound and a binding buffer were mixed in a total volume of 50 μL, and the mixture was stood at 4° C. for 30 min or longer. A specific binding was defined to be the difference in the [^3H]-Dex binding between the presence and the absence of 1 μM unlabeled Dex.
After the reaction, 50 μL of DCC was added to each well and blended. Thereafter, the mixture was stood at 4° C. for 10 min. The plate was applied to high-speed cooling centrifuge under the conditions of 4° C., 2000 rpm, 5 min to perform B/F separation. A given amount of the supernatant was recovered, which was spotted on Filtermat A of 96 well format (PerkinElmer) and rapidly dried at a high temperature.
Measurement of Inhibition Constant (Ki)
Ki of the test compound was determined by the following Cheng-Prusoff equation: Ki=IC50/(1+[L*]/Kd) • wherein L* is a concentration of radioactive ligand and Kd is a dissociation constant for radioactive ligand determined by saturation analysis.
In general, Ki refers to a measure of affinity in units of concentration, obtained from inhibition or displacement. On to `CC1(C)Nc2c(cc(-c3ccnc4cc[nH]c34)c3c2CCC3)C(C)(C)C1=O` [Example 13, 2,2,4,4-tetramethyl-6-(1H-pyrrolo[3,2-b]pyridin-7-yl)-2,3,4,7,8,9-hexahydro-1H-cyclopenta[h]quinolin-3-one], for which the Ki was determined as 54 nM. For `CC1(C)Nc2c(cc(-c3cccc4nccn34)c3c2OCO3)C(C)(C)C1=O` [Example 71, 4-(imidazo[1,2-a]pyridin-5-yl)-6,6,8,8-tetramethyl-6,7,8,9-tetrahydro-[1,3]dioxolo[4,5-h]quinolin-7-one], the Ki came out at 59 nM.

Regarding `CC1(C)Nc2c(cc(-c3ccnc4ncccc34)c3occc23)C(C)(C)C1=O` [Example 102, 2,2,4,4-tetramethyl-6-([1,8]naphthyridin-4-yl)-1,2,3,4-tetrahydro-furo[2,3-h]quinolin-3-one], the Ki came out at 66 nM. Regarding `CC1(C)Nc2c(cc(-c3cccc4ncccc34)c3c2OCO3)C(C)(C)C1=O` [Example 72, 6,6,8,8-tetramethyl-4-(quinolin-5-yl)-6,7,8,9-tetrahydro-[1,3]dioxolo[4,5-h]quinolin-7-one], the Ki is 96 nM.
